From patent publication US12673038B2, “Antimycotic methoxyflavone and fluconazole combination for inhibiting cryptococcus” (Karl-Franzens-Universität Graz, priority 2019, dated 2026)
Converted amounts (≈) assume the structure as drawn.

Assays:
S. cerevisiae = assay: MIC determination, CLSI protocol M27-A3, OD490; assay type: cell-based; conditions: Saccharomyces cerevisiae; S. cerevisiae planktonic growth, 50% reduction vs control, mean±SEM
Protocol: S. cerevisiae BY4741 cells were grown in SMD minimal media to mid-log phase and then treated with the indicated concentrations of 5-MF; control cells were treated with the same amount of solvent (DMSO). (A) Clonogenicity was assayed by plating 500 cells on YPD agar plates and colony forming units (CFUs) were counted to calculate survival rates. (B) Yeast cells were analyzed for cell death markers via AnnV/PI co-staining using flow cytometry. (C) The accumulation of reactive oxygen species was monitored by dihydrotethidium (DHE) to ethidium (Eth) conversion using flow cytometry. Assays in (A-C) were performed on day 3 after treatment. […] Data was analyzed by one-way ANOVA and corrected for multiple comparison using a Bonferroni post-hoc test. ns: not significant, * p<0.05, *** p<0.001, **** p<0.0001. […] The minimal inhibitory concentration (MIC) was determined following the standard Clinical and Laboratory Standards Institute (CLSI) protocol M27 (Rex JH, and Clinical and Laboratory Standards Institute (2008). Reference method for broth dilution antifungal susceptibility testing of yeasts: approved standard, 3rd ed. National Committee for Clinical Laboratory Standards, Wayne, PA) for yeast strains or the standard CLSI protocol […] […] After incubation, OD490 values were measured using 96-well plate reader and growth capacity was analyzed by setting the corresponding control to 100%. […]

C. albicans SC5314 = assay: C. elegans infection model for C. albicans infection; assay type: in vivo, Caenorhabditis elegans; conditions: C. elegans Δglp-4 Δsek-1 infected with C. albicans
Protocol: Survival curves of non-infected (ui ctrl.) and infected (i ctrl.) nematodes treated or not with 5-MF are shown in (A), and the survival of living nematodes on day 5 is shown in (B). Synchronized C. elegans Δglp-4 Δsek-1 larvae were infected at the L4 stage as previously described (Delattin N, et al., Antimicrob Chemother. 69(2014): 1035-1044). 35-50 infected worms were then suspended in 750 μL growth medium (M9 buffer supplemented with 10 mg/L cholesterol, 100 mg/L kanamycin and 75 mg/L ampicillin) in separate wells of a 24-well plate with at least 3 wells for each condition. Worms were treated with 200 μM 5-MF or the corresponding volume of solvent (i ctrl) immediately after infection (single application). Worm survival was monitored daily over the period of five days. Additionally, the survival of non-infected worms (ui ctrl) was monitored as a control. […] In (B), worm survival is expressed as the percentage of viability at day 5 compared to day 0, with data analyzed using one-way ANOVA and corrected for multiple comparison using a Bonferroni post-hoc test. ** p<0.01, **** p<0.0001. […]
For efficacy testing of compounds, 750 μL of the worm suspension were transferred into each well of a 24-well plate and substances were added at indicated concentrations (1% DMSO). Nematodes were immediately counted (t0) and survival was monitored over five days post infection by counting living worms. […]

C. albicans = assay: In vitro antifungal activity of flavone in combination with azoles, growth via OD490; assay type: cell-based, Candida albicans; conditions: OD490, flavone plus azole vs each alone

COc1cccc2oc(-c3ccccc3)cc(=O)c12 [5-MF, 5-methoxyflavone]
MIC50 (S. cerevisiae): 90.6 ± 12.4 µM (≈ 22.9 µg/mL)
worms alive at day 5 post infection (C. albicans SC5314; 200 μM 5-MF single application, infected control 20.6%): 42.9%
nematode survival over 5 days post infection (C. albicans SC5314; compared to infected control): prolonged protection
enhancement of the antifungal activity of azoles in the presence of the flavone (C. albicans): enhancement of the antifungal activity
